Test results from patent publication US8945584B2, “Cell culture system of a hepatitis C genotype 3a and 2a chimera” (Hvidovre Hospital, priority 2007, dated 2015).

Tests used:
Huh7.5 cells [1] = assay: Real-time PCR (TaqMan) assay for HCV RNA titers in cell culture supernatants; assay type: cell-based, human; settings: kinetic experiment, inoculated with ~10^4 TCID50, day 6 and 9
Method: RNA was purified from 200 μl of heat inactivated (56° C. for 30 min) cell culture supernatant and eluted in a final volume of 50 μl using the Total Nucleic Acid Isolation Kit (Roche) in combination with the Total NA Variable Elution Volume protocol on a MagNA Pure LC Instrument (Roche). As an internal control, Phocine Distemper Virus (PDV) was added to the lysis buffer in a concentration titrated to yield a Ct of ˜32 upon real-time PCR analysis. In parallel to RNA purified from cell culture supernatants, a quantitative HCV standard panel covering RNA concentrations of 0 to 5×10^6 IU/ml in one log increments (OptiQuant HCV Panel, AcroMetrix) was analysed. […] For HCV, primers and a FAM-labelled MGB-probe were directed against the 5′ UTR and were previously shown to perform equivalently against a panel of the six major HCV genotypes in a different TaqMan assay (Engle R E, Bukh J, and Purcell R H, 2007) For PDV, a ready-to-use primer/probe mix was used (Dr. H. G. M. Niesters, Department of Virology, Erasmus Medical Centre, Rotterdam, The Netherlands). […] HCV RNA titers (IU/ml) were calculated using a standard curve created from the known concentrations of the standard panel and their corresponding Ct values (cycle number, at which the normalised fluorescence signal rises above a fixed threshold of 0.2 […] to the amount of template in the PCR reaction). […]

Huh7.5 cells [2] = assay: Determination of 50% tissue culture infectious doses (TCID50) of culture supernatants; assay type: cell-based, human; settings: for infectivity titer (TCID50): day 9 post-transfection, one of 6 replicate wells infected with undiluted supernatant
Method: To determine the efficiency of the developed system, HCV RNA titers are determined in IU/ml (international units/ml) with Taq-Man Real-Time-PCR and infectious titers are determined with a tissue culture infectious dose-50 method. This titer indicates the dilution of the examined viral stock, at which 50% of the replicate cell cultures used in the essay become infected and is given in TCID50/ml.
In general, the TCID50 of culture supernatants was determined as previously described. Huh7.5 cells were washed with PBS, trypsinized and plated at 6×10^3 cells per well of a poly-D-lysine coated 96 well plate (Nunc). After ˜24 hrs cells were incubated with 10-fold serial dilutions of viral stock cell culture supernatant in complete growth medium. For each dilution, six replicate wells were inoculated. After incubation for 48 hrs the plate was subjected to immuno staining for NS5A as described above. Wells were evaluated by light microscopy and scored positive if at least one positive cell could be detected. TCID50 values were calculated as described by Reed and Muench.
For determination of TCID50 Huh7.5 cells were plated at 6×10^3 cells/well on a poly-D-Lysine coated 96 well plate and infected with serial dilutions of virus containing cell culture supernatant in complete growth medium in replicates of 6 wells per dilution. After incubation for 48 hours cells were stained for NS5A expression. A well was counted positive, if at least one infected cell was visible. Calculation of TCID50 was done as previously described by Reed et al. † Average of 3 independent determinations, * average of 2 independent determinations, +1 determination. HCV RNA titers were determined with an TaqMan assay. Supernatants from transfection experiments were not tested in TaqMan due to DNA/RNA input from the transfection procedure. Specific infectivity was calculated as infectious units (TCID50/ml) per genome number (IU/ml).

Huh7.5 cells [3] = assay: Percentage of infected cells by immuno-staining for HCV NS5A; assay type: cell-based, human
Method: Analyses were carried out as previously described with modifications. Huh7.5 cells were washed with PBS, trypsinized and plated on chamber slides (Nunc). After ˜24 hours cells were washed twice with PBS and fixed 5 min with ice-cold methanol. After washing 2× with PBS and 1× with PBS/Tween (0.1% Tween-20), slides were blocked with PBS containing bovine serum albumin (BSA, 1%) and skim milk (0.2%) for 1 hour at room temperature. Endogenous peroxidase staining was reduced by adding 3% H202 in PBS for 5 min. After washing as above the 1st antibody (anti-NS5A, 9E10, a generous gift from Charles M. Rice, used at 1:200 in PBS/Tween) was added and incubated at 4° C. overnight. After washing slides were incubated with secondary antibody (ECLTM Anti-mouse IgG, horseradish peroxidase linked whole antibody, Amersham Biosciences, used at 1:300 in PBS/Tween) for 30 min at room temperature. After washing horseradish peroxidase substrate (DAB substrate kit, DAKO) was added. After incubation for 30 min, slides were washed with H2O, mounted with Fluoromount-G (Southern Biotech) and cover slipped. Percentage of infected cells was evaluated by light microscopy assigning values of 0% (no cells infected), 1%, 5%, 10-90% (in steps of 10%), 95% and 100% (all cells infected).

S52/JFH1(A4550C) = assay: Interferon alfa 2b treatment of infected Huh7.5 cultures, % NS5A positive cells; assay type: cell-based, hepatitis C virus; settings: 5001 U/mL interferon alfa 2b in medium (FIG. 10 legend: 500 IU/mL)
Method: (§1) FIG. 10. S52/JFH1 viruses are sensitive to treatment with Interferon alfa. […] Huh7.5 cells were infected with 10^4 TCID50 (MOI 0,003) of the indicated viruses. On day 5 after infection, cultures were evaluated for % of NS5A positive cells (first datapoint) and 4×10^5 cells of the respective culture were plated per well of a 6-well dish. After 24 hrs incubation, treatment with cell culture medium containing 500 IU/mL interferon alfa 2b was started. Interferon containing medium was replaced at the time points indicated by arrows. Cultures were evaluated for the % of NS5A positive cells at the indicated timepoints.
(§2) As proof of principle of using the present invention in testing of anti-hepatitis C virus substances, the effects of interferon alfa, currently used in combination therapy for HCV, were tested on the infected cell culture. […] Thus we treated Huh7.5 cell cultures infected with J6/JFH1, S52/JFH1(T2718G; A4550C) and S52/JFH1(A4550C) with cell culture medium containing 5001 U/mL interferon alfa 2b (FIG. 10). After initiation of treatment, we observed for all cultures a fast decline of HCV antigen positive cells. Thus, for J6/JFH1 and S52/JFH1(T2718G; A4550C) the percentage of NS5A positive cells was 90 and 60 the day prior to treatment, whereas only 20% and 10% NS5A positive cells were detected in the respective cultures on day 3 of treatment ([…]).
(§3) HCV cell culture systems could be important tools for testing of antiviral therapeutics. […] Thus Huh7.5 cell cultures infected with J6/JFH1, S52/JFH1(T2718G; A4550C) and S52/JFH1(A4550C) were treated with cell culture medium containing 5001 U/mL interferon alfa 2b. After initiation of treatment, a fast decline of HCV antigen positive cells was shown for all cultures. Thus, for J6/JFH1 and S52/JFH1(T2718G; A4550C) the percentage of NS5A positive cells was 90 and 60 the day prior to treatment, whereas only 20% and 10% NS5A positive cells were detected in the respective cultures on day 3 of treatment (FIG. 10).

J6/JFH1 = assay: as above; assay type: cell-based, hepatitis C virus
Method: as §1, §2, §3

S52/JFH1(T2718G; A4550C) = assay: as above; assay type: cell-based, hepatitis C virus
Method: as §1, §2, §3

[4] = 5001 U/mL interferon alfa 2b in medium (FIG. 10 legend: 500 IU/mL)
[5] = day 6, cultures not treated for 48 hrs

**Q.** How did the “peak HCV RNA titers” value (Huh7.5 cells [1]) turn out when “S52/JFH1: intergenotypic 3a/2a recombinant HCV: Core-NS2 of strain S52, 5' UTR, NS3-NS5B and 3' UTR of JFH1” was run?
**A.** Its value is ~10^7 copies/ml.

**Q.** And the “infectivity titer (TCID50)” value (Huh7.5 cells [2])?
**A.** Its value is “undeterminable”.

**Q.** And the “infectivity titer (TCID50)” value (Huh7.5 cells [2]; listed as pS52/JFH1)?
**A.** Its value is “non-determinable”.

**Q.** What about the “Peak infectivity titers after transfection” value (Huh7.5 cells [2]; days 3, 7 and 9 post-transfection (FIG. 5B)) of the same substance?
**A.** Its value is “significantly lower titers”.

**Q.** What about the “% infected cells” value (Huh7.5 cells [3]; First experiment, 2nd viral passage (used for kinetic experiment), day 11) of the same substance?
**A.** The value was 95%.

**Q.** And the “% infected cells” value (Huh7.5 cells [3]; First experiment, 3rd viral passage (inoculated with 10^2.5 TCID50), day 12)?
**A.** The value was 95%.

**Q.** And the “% infected cells” value (Huh7.5 cells [3]; First experiment, 3rd viral passage (inoculated with 10^4 TCID50), day 3)?
**A.** Its value is 90%.

**Q.** And the “% infected cells” value (Huh7.5 cells [3]; First experiment, transfection, experimental day 11)?
**A.** Its value is 40%.

**Q.** And the “% infected cells” value (Huh7.5 cells [3]; Second experiment, 1st viral passage, experimental day 8)?
**A.** Its value is 95%.

**Q.** And the “% infected cells” value (Huh7.5 cells [3]; Second experiment, transfection, experimental day 33)?
**A.** Its value is 70%.

**Q.** What about the “NS5A antigen positive cells” value (Huh7.5 cells [3]; day 1 after transfection with RNA transcripts) of the same substance?
**A.** Its value is ~10%.

**Q.** And the “time until viruses spread to the entire culture” value (from here on “time until viruses spread”) (Huh7.5 cells [3]; naive Huh7.5 cells infected with approximately 10^2.5 TCID50)?
**A.** Its value is 12 days.

**Q.** What about the “time until viruses spread” value (Huh7.5 cells [3]; naive Huh7.5 cells infected with approximately 10^3 TCID50) of the same substance?
**A.** The value was 9 days.

**Q.** What about the “time until viruses spread” value (Huh7.5 cells [3]; naive Huh7.5 cells infected with approximately 10^4 TCID50) of the same substance?
**A.** The value was 3 days.

**Q.** Which results are given for interferon alfa 2b?
**A.** HCV antigen positive cells after initiation of treatment (S52/JFH1(A4550C)): fast decline; HCV antigen positive cells after initiation of treatment (J6/JFH1; [4]): fast decline; NS5A positive cells (J6/JFH1; day 3 of treatment, 90 the day prior to treatment): 20%; NS5A positive cells (J6/JFH1; [5]): 40%; HCV antigen positive cells after initiation of treatment (S52/JFH1(T2718G; A4550C); [4]): fast decline; NS5A positive cells (S52/JFH1(T2718G; A4550C); day 3 of treatment, 60 the day prior to treatment): 10%; NS5A positive cells (S52/JFH1(T2718G; A4550C); [5]): 40%
